Laboratory results as given in the supplement of paper PMC10307832.

Key:
Experiment in all cases: relative viability (nuclei count vs DMSO), 5 days (fraction); higher = more cells survive
ABC-1 = system: ABC-1
Method in brief: (§1)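 After 5 days of treatment, lung cancer cells in 1536-well plates were fixed and stained in a single step (final 0.05% Triton X-100, 1% formaldehyde, 1 ug/ml Hoechst) and their nuclei counted on 4× images. Treatment had been applied by pin tool the day after seeding as one drug alone or as a fixed anchor-drug dose with five library-drug doses (not always all listed) in √10 steps. Relative viability is the nuclei count of treated wells divided by that of vehicle wells, and values are medians of duplicate plates.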

H3255 = system: H3255
Method in brief: as §1

PC-14 = system: PC-14
Method in brief: as §1

NCI-H1355 = system: NCI-H1355
Method in brief: as §1

NCI-H596 = system: NCI-H596
Method in brief: as §1

CAL-12T = system: CAL-12T
Method in brief: as §1

NCI-H1793 = system: NCI-H1793
Method in brief: as §1

NCI-H838 = system: NCI-H838
Method in brief: as §1

NCI-H2087 = system: NCI-H2087
Method in brief: as §1

NCI-H23 = system: NCI-H23
Method in brief: as §1

NCI-H727 = system: NCI-H727
Method in brief: as §1

NCI-H1792 = system: NCI-H1792
Method in brief: as §1

NCI-H1651 = system: NCI-H1651
Method in brief: as §1

NCI-H522 = system: NCI-H522
Method in brief: as §1

NCI-H358 = system: NCI-H358
Method in brief: as §1

NCI-H1666 = system: NCI-H1666
Method in brief: as §1

A-427 = system: A-427
Method in brief: as §1

NCI-H1437 = system: NCI-H1437
Method in brief: as §1

UMC-11 = system: UMC-11
Method in brief: as §1

NCI-H2023 = system: NCI-H2023
Method in brief: as §1

NCI-H2009 = system: NCI-H2009
Method in brief: as §1

SK-MES-1 = system: SK-MES-1
Method in brief: as §1

SW 1573 = system: SW 1573
Method in brief: as §1

Structure (SMILES): Oc1nc(-c2ccc(C(F)(F)F)cc2)nc2c1CSCC2 [XAV939] + NC(=O)Nc1cc(-c2cccc(F)c2)sc1C(=O)N[C@H]1CCCNC1 [AZD7762] (partner 0.2 µM)
- relative viability (ABC-1; first compound 0.253 µM): 0.537
- relative viability (ABC-1; first compound 0.8 µM): 0.768
- relative viability (ABC-1; first compound 2.53 µM): 0.676
- relative viability (H3255; first compound 0.08 µM): 0.858
- relative viability (H3255; first compound 0.253 µM): 0.753
- relative viability (H3255; first compound 0.8 µM): 0.773
- relative viability (H3255; first compound 2.53 µM): 0.669
- relative viability (PC-14; first compound 0.08 µM): 0.352
- relative viability (PC-14; first compound 0.253 µM): 0.333
- relative viability (PC-14; first compound 0.8 µM): 0.304
- relative viability (PC-14; first compound 2.53 µM): 0.345
- relative viability (NCI-H1355; first compound 0.08 µM): 0.728
- relative viability (NCI-H1355; first compound 0.253 µM): 0.613
- relative viability (NCI-H1355; first compound 0.8 µM): 0.626
- relative viability (NCI-H1355; first compound 2.53 µM): 0.561
- relative viability (NCI-H596; first compound 0.08 µM): 0.918
- relative viability (NCI-H596; first compound 0.253 µM): 0.896
- relative viability (NCI-H596; first compound 0.8 µM): 1.02
- relative viability (NCI-H596; first compound 2.53 µM): 1.02
- relative viability (CAL-12T; first compound 0.08 µM): 0.654
- relative viability (CAL-12T; first compound 0.253 µM): 0.595
- relative viability (CAL-12T; first compound 0.8 µM): 0.609
- relative viability (CAL-12T; first compound 2.53 µM): 0.507
- relative viability (NCI-H1793; first compound 0.08 µM): 0.989
- relative viability (NCI-H1793; first compound 0.253 µM): 0.307
- relative viability (NCI-H1793; first compound 0.8 µM): 0.355
- relative viability (NCI-H1793; first compound 2.53 µM): 0.312
- relative viability (NCI-H838; first compound 0.08 µM): 0.93
- relative viability (NCI-H838; first compound 0.253 µM): 0.842
- relative viability (NCI-H838; first compound 0.8 µM): 0.923
- relative viability (NCI-H838; first compound 2.53 µM): 0.799
- relative viability (NCI-H2087; first compound 0.08 µM): 1.29
- relative viability (NCI-H2087; first compound 0.253 µM): 1.2
- relative viability (NCI-H2087; first compound 0.8 µM): 1.22
- relative viability (NCI-H2087; first compound 2.53 µM): 1.31
- relative viability (NCI-H23; first compound 0.08 µM): 0.393
- relative viability (NCI-H23; first compound 0.8 µM): 0.195
- relative viability (NCI-H23; first compound 2.53 µM): 0.238
- relative viability (NCI-H727; first compound 0.08 µM): 0.514
- relative viability (NCI-H727; first compound 0.8 µM): 0.626
- relative viability (NCI-H727; first compound 2.53 µM): 0.783
- relative viability (NCI-H1792; first compound 0.08 µM): 0.823
- relative viability (NCI-H1792; first compound 0.253 µM): 0.595
- relative viability (NCI-H1792; first compound 0.8 µM): 0.636
- relative viability (NCI-H1792; first compound 2.53 µM): 0.591
- relative viability (NCI-H1651; first compound 0.08 µM): 0.518
- relative viability (NCI-H1651; first compound 0.253 µM): 0.429
- relative viability (NCI-H1651; first compound 0.8 µM): 0.383
- relative viability (NCI-H1651; first compound 2.53 µM): 0.389
- relative viability (NCI-H522; first compound 0.08 µM): 0.914
- relative viability (NCI-H522; first compound 0.253 µM): 0.797
- relative viability (NCI-H522; first compound 0.8 µM): 0.825
- relative viability (NCI-H522; first compound 2.53 µM): 0.819
- relative viability (NCI-H358; first compound 0.08 µM): 0.476
- relative viability (NCI-H358; first compound 0.253 µM): 0.438
- relative viability (NCI-H358; first compound 0.8 µM): 0.344
- relative viability (NCI-H358; first compound 2.53 µM): 0.448
- relative viability (NCI-H1666; first compound 0.08 µM): 0.885
- relative viability (NCI-H1666; first compound 0.253 µM): 0.656
- relative viability (NCI-H1666; first compound 0.8 µM): 0.735
- relative viability (NCI-H1666; first compound 2.53 µM): 0.621
- relative viability (A-427; first compound 0.08 µM): 0.816
- relative viability (A-427; first compound 0.253 µM): 0.684
- relative viability (A-427; first compound 0.8 µM): 0.706
- relative viability (A-427; first compound 2.53 µM): 0.696
- relative viability (NCI-H1437; first compound 0.08 µM): 1.17
- relative viability (NCI-H1437; first compound 0.253 µM): 1.07
- relative viability (NCI-H1437; first compound 0.8 µM): 1.1
- relative viability (NCI-H1437; first compound 2.53 µM): 1.02

Structure (SMILES): Oc1nc(-c2ccc(C(F)(F)F)cc2)nc2c1CSCC2 [XAV939] + CC(=O)Nc1cccc(-n2c(=O)n(C3CC3)c(=O)c3c(Nc4ccc(I)cc4F)n(C)c(=O)c(C)c32)c1 [Trametinib] (partner 0.02 µM)
- relative viability (H3255; first compound 0.08 µM): 0.674
- relative viability (H3255; first compound 0.253 µM): 0.528
- relative viability (H3255; first compound 0.8 µM): 0.62
- relative viability (H3255; first compound 2.53 µM): 0.425
- relative viability (PC-14; first compound 0.08 µM): 0.833
- relative viability (PC-14; first compound 0.253 µM): 0.707
- relative viability (PC-14; first compound 0.8 µM): 0.671
- relative viability (PC-14; first compound 2.53 µM): 0.597
- relative viability (NCI-H1355; first compound 0.08 µM): 0.367
- relative viability (NCI-H1355; first compound 0.253 µM): 0.336
- relative viability (NCI-H1355; first compound 0.8 µM): 0.38
- relative viability (NCI-H1355; first compound 2.53 µM): 0.291
- relative viability (NCI-H596; first compound 0.08 µM): 0.974
- relative viability (NCI-H596; first compound 0.253 µM): 0.775
- relative viability (NCI-H596; first compound 0.8 µM): 0.75
- relative viability (NCI-H596; first compound 2.53 µM): 0.657
- relative viability (CAL-12T; first compound 0.08 µM): 0.346
- relative viability (CAL-12T; first compound 0.253 µM): 0.257
- relative viability (CAL-12T; first compound 0.8 µM): 0.272
- relative viability (CAL-12T; first compound 2.53 µM): 0.223
- relative viability (NCI-H1793; first compound 0.08 µM): 0.576
- relative viability (NCI-H1793; first compound 0.253 µM): 0.381
- relative viability (NCI-H1793; first compound 0.8 µM): 0.381
- relative viability (NCI-H1793; first compound 2.53 µM): 0.353
- relative viability (NCI-H838; first compound 0.08 µM): 0.595
- relative viability (NCI-H838; first compound 0.253 µM): 0.441
- relative viability (NCI-H838; first compound 0.8 µM): 0.392
- relative viability (NCI-H838; first compound 2.53 µM): 0.39
- relative viability (NCI-H2087; first compound 0.08 µM): 0.198
- relative viability (NCI-H2087; first compound 0.253 µM): 0.168
- relative viability (NCI-H2087; first compound 0.8 µM): 0.215
- relative viability (NCI-H2087; first compound 2.53 µM): 0.147
- relative viability (NCI-H23; first compound 0.08 µM): 0.383
- relative viability (NCI-H23; first compound 0.8 µM): 0.403
- relative viability (NCI-H23; first compound 2.53 µM): 0.349
- relative viability (NCI-H727; first compound 0.08 µM): 0.361
- relative viability (NCI-H727; first compound 0.8 µM): 0.398
- relative viability (NCI-H727; first compound 2.53 µM): 0.403
- relative viability (NCI-H1792; first compound 0.08 µM): 0.492
- relative viability (NCI-H1792; first compound 0.253 µM): 0.473
- relative viability (NCI-H1792; first compound 0.8 µM): 0.448
- relative viability (NCI-H1792; first compound 2.53 µM): 0.391
- relative viability (UMC-11; first compound 0.08 µM): 0.692
- relative viability (UMC-11; first compound 0.253 µM): 0.703
- relative viability (UMC-11; first compound 0.8 µM): 0.879
- relative viability (UMC-11; first compound 2.53 µM): 0.632
- relative viability (NCI-H2023; first compound 0.08 µM): 0.625
- relative viability (NCI-H2023; first compound 0.253 µM): 0.365
- relative viability (NCI-H2023; first compound 0.8 µM): 0.473
- relative viability (NCI-H2023; first compound 2.53 µM): 0.407
- relative viability (NCI-H1651; first compound 0.08 µM): 0.821
- relative viability (NCI-H1651; first compound 0.253 µM): 0.724
- relative viability (NCI-H1651; first compound 0.8 µM): 0.825
- relative viability (NCI-H1651; first compound 2.53 µM): 0.816
- relative viability (NCI-H2009; first compound 0.08 µM): 0.287
- relative viability (NCI-H2009; first compound 0.253 µM): 0.281
- relative viability (NCI-H2009; first compound 0.8 µM): 0.19
- relative viability (NCI-H2009; first compound 2.53 µM): 0.217
- relative viability (NCI-H522; first compound 0.08 µM): 0.88
- relative viability (NCI-H522; first compound 0.253 µM): 0.713
- relative viability (NCI-H522; first compound 0.8 µM): 0.888
- relative viability (NCI-H522; first compound 2.53 µM): 0.725
- relative viability (NCI-H358; first compound 0.08 µM): 0.139
- relative viability (NCI-H358; first compound 0.253 µM): 0.134
- relative viability (NCI-H358; first compound 0.8 µM): 0.122
- relative viability (NCI-H358; first compound 2.53 µM): 0.108
- relative viability (SK-MES-1; first compound 0.08 µM): 0.554
- relative viability (SK-MES-1; first compound 0.253 µM): 0.5
- relative viability (SK-MES-1; first compound 0.8 µM): 0.489
- relative viability (SK-MES-1; first compound 2.53 µM): 0.459
- relative viability (NCI-H1666; first compound 0.08 µM): 1
- relative viability (NCI-H1666; first compound 0.253 µM): 0.834
- relative viability (NCI-H1666; first compound 0.8 µM): 0.754
- relative viability (NCI-H1666; first compound 2.53 µM): 0.871
- relative viability (A-427; first compound 0.08 µM): 0.818
- relative viability (A-427; first compound 0.253 µM): 0.737
- relative viability (A-427; first compound 0.8 µM): 0.781
- relative viability (A-427; first compound 2.53 µM): 0.658
- relative viability (SW 1573; first compound 0.08 µM): 0.63
- relative viability (SW 1573; first compound 0.253 µM): 0.545
- relative viability (SW 1573; first compound 0.8 µM): 0.608
- relative viability (SW 1573; first compound 2.53 µM): 0.425
- relative viability (NCI-H1437; first compound 0.08 µM): 0.499
- relative viability (NCI-H1437; first compound 0.253 µM): 0.407
- relative viability (NCI-H1437; first compound 0.8 µM): 0.518
- relative viability (NCI-H1437; first compound 2.53 µM): 0.29
